Experimental data reported in patent US20070128217A1 (priority 2003, published 2007).

Columns and labels:
[1] = test system: antibodies in sera from SARS patients (sera 1a, 1b, 2, 6, 37, 62, London, SARS-yellow, SARS-green); format: binding, human; design: Binding of serum 6 to linear peptides of protein X1 of SARS-CoV Urbani / Binding of serum 37 to linear peptides of protein X1 of SARS-CoV Urbani / Binding of serum 6 to looped/cyclic peptide (PEPSCAN-ELISA) / Binding of serum 37 to looped/cyclic peptide (PEPSCAN-ELISA) / Binding of serum 37 to looped/cyclic peptides of protein X1 of SARS-CoV Urbani / Binding of serum 6 to linear peptides of protein X2 / Binding of serum 37 to linear peptides of protein X2 / Binding of serum 37 to looped/cyclic peptides of protein X2 of SARS-CoV Urbani / Binding of serum 6 to linear peptides of protein M of SARS-CoV Urbani / Binding of serum 37 to linear peptides of protein M of SARS-CoV Urbani / Binding of serum 6 to looped/cyclic peptides of protein M of SARS-CoV Urbani / Binding of serum 37 to looped/cyclic peptides of protein M of SARS-CoV Urbani / Binding of serum 6 to linear peptides of protein X3 of SARS-CoV Urbani / Binding of serum 37 to linear peptides of protein X3 of SARS-CoV Urbani / Binding of serum 37 to looped/cyclic peptides of protein X3 of SARS-CoV Urbani / Binding of serum 6 to linear peptides of protein X4 of SARS-CoV Urbani / Binding of serum 37 to linear peptides of protein X4 of SARS-CoV Urbani / Binding of serum 37 to looped/cyclic peptides of protein X4 of SARS-CoV Urbani / Binding of serum 6 to linear peptides of protein X5 of SARS-CoV Urbani / Binding of serum 37 to linear peptides of protein X5 of SARS-CoV Urbani / Binding of serum 37 to looped/cyclic peptides of protein X5 of SARS-CoV Urbani / Binding of serum 6 to linear peptides of protein N of SARS-CoV Urbani / Binding of serum 37 to linear peptides of protein N of SARS-CoV Urbani / Binding of serum 6 to linear peptide (PEPSCAN-ELISA) / Binding of serum 1a to looped/cyclic peptides of protein N of SARS-CoV Urbani / Binding of serum 1b to looped/cyclic peptides of protein N of SARS-CoV Urbani / Binding of serum 2 to looped/cyclic peptides of protein N of SARS-CoV Urbani / Binding of serum 6 to looped/cyclic peptides of protein N of SARS-CoV Urbani / Binding of serum 37 to looped/cyclic peptides of protein N of SARS-CoV Urbani / Binding of serum 62 to looped/cyclic peptides of protein N of SARS-CoV Urbani / Binding of serum London to looped/cyclic peptides of protein N of SARS-CoV Urbani / Binding of serum SARS-green to looped/cyclic peptides of protein N of SARS-CoV Urbani: unit not given here
[2] = test system: control sera (pooled serum of ten healthy LUMC hospital workers; commercial negative donor pooled serum from the Dutch bloodbank); format: binding, human; design: Binding of Control serum LUMC to linear peptides / Binding of Control serum Blood-bank to linear peptides / Binding of Control serum LUMC to looped peptides / Binding of Control Serum Blood-Bank to Looped peptides / Binding of Control serum LUMC to linear peptides of the protein M of SARS-CoV Urbani / Binding of Control serum Blood-bank to linear peptides of the protein M of SARS-CoV Urbani / Binding of Control serum LUMC to looped peptides of the protein M of SARS-CoV Urbani / Binding of Control Serum Blood-Bank to Looped peptides of the protein M of SARS-CoV Urbani: unit not given here
[3] = test system: rabbit serum obtained by immunizing a rabbit with the SARS-CoV strain Frankfurt 1; format: binding; design: Binding of a rabbit serum to linear peptides / Binding of a rabbit serum to looped peptides / Rabbit serum linear peptides / Rabbit serum looped peptides / Binding of a rabbit serum to linear peptides of protein N of SARS-CoV Urbani (Rabbit serum linear peptides) / Binding of a rabbit serum to looped/cyclic peptides of protein N of SARS-CoV Urbani (Rabbit serum looped peptides): unit not given here

VAAGMEAQFLYLYAL
0.1: Binding of a rabbit serum to linear peptides [3]
0.6: Binding of serum 1b to linear peptides of protein X1 of SARS-CoV Urbani [1]
0.5: Binding of serum 1a to looped/cyclic peptide (PEPSCAN-ELISA) [1] | Binding of serum 2 to linear peptides of protein X1 of SARS-CoV Urbani [1] | Binding of serum 37 to linear peptides of protein X1 of SARS-CoV Urbani [1] | Binding of serum 37 to looped/cyclic peptide (PEPSCAN-ELISA) [1] | Binding of serum 62 to looped/cyclic peptide (PEPSCAN-ELISA) [1] | Binding of serum SARS-yellow to looped/cyclic peptide (PEPSCAN-ELISA) [1] | Binding of Control Serum Blood-Bank to Looped peptides [2] | Binding of Control serum Blood-bank to linear peptides [2] | Binding of a rabbit serum to looped peptides [3]
0.4: Binding of serum 1b to looped/cyclic peptide (PEPSCAN-ELISA) [1] | Binding of serum 2 to looped/cyclic peptide (PEPSCAN-ELISA) [1] | Binding of serum 6 to linear peptides of protein X1 of SARS-CoV Urbani [1] | Binding of serum 62 to linear peptides of protein X1 of SARS-CoV Urbani [1]
0.2: Binding of serum London to linear peptides of protein X1 of SARS-CoV Urbani [1] | Binding of serum London to looped/cyclic peptide (PEPSCAN-ELISA) [1] | Binding of serum SARS-green to linear peptides of protein X1 of SARS-CoV Urbani [1]
0.3: Binding of serum 6 to looped/cyclic peptide (PEPSCAN-ELISA) [1] | Binding of serum SARS-green to looped/cyclic peptide (PEPSCAN-ELISA) [1] | Binding of serum SARS-yellow to linear peptides of protein X1 of SARS-CoV Urbani [1]
0.7: Binding of serum 1a to linear peptides of protein X1 of SARS-CoV Urbani [1]
0.9: Binding of Control serum LUMC to linear peptides [2]
0.8: Binding of Control serum LUMC to looped peptides [2]

VAFLAVFQSATKIIA
0.6: Binding of serum 1a to linear peptides of protein X1 of SARS-CoV Urbani [1] | Binding of serum 1a to looped/cyclic peptide (PEPSCAN-ELISA) [1] | Binding of serum 2 to looped/cyclic peptide (PEPSCAN-ELISA) [1] | Binding of serum 37 to linear peptides of protein X1 of SARS-CoV Urbani [1] | Binding of serum 37 to looped/cyclic peptide (PEPSCAN-ELISA) [1] | Binding of serum 62 to linear peptides of protein X1 of SARS-CoV Urbani [1] | Binding of serum 62 to looped/cyclic peptide (PEPSCAN-ELISA) [1] | Binding of Control serum Blood-bank to linear peptides [2] | Binding of a rabbit serum to looped peptides [3]
0.2: Binding of serum London to linear peptides of protein X1 of SARS-CoV Urbani [1] | Binding of serum SARS-green to linear peptides of protein X1 of SARS-CoV Urbani [1] | Binding of a rabbit serum to linear peptides [3]
0.5: Binding of serum 1b to linear peptides of protein X1 of SARS-CoV Urbani [1] | Binding of serum 2 to linear peptides of protein X1 of SARS-CoV Urbani [1] | Binding of serum SARS-yellow to looped/cyclic peptide (PEPSCAN-ELISA) [1] | Binding of Control serum LUMC to linear peptides [2]
0.7: Binding of serum 6 to linear peptides of protein X1 of SARS-CoV Urbani [1] | Binding of serum 6 to looped/cyclic peptide (PEPSCAN-ELISA) [1] | Binding of serum London to looped/cyclic peptide (PEPSCAN-ELISA) [1] | Binding of Control Serum Blood-Bank to Looped peptides [2] | Binding of Control serum LUMC to looped peptides [2]
0.4: Binding of serum 1b to looped/cyclic peptide (PEPSCAN-ELISA) [1] | Binding of serum SARS-green to looped/cyclic peptide (PEPSCAN-ELISA) [1] | Binding of serum SARS-yellow to linear peptides of protein X1 of SARS-CoV Urbani [1]

VATSRTLSYYKLGAS
0.4: Binding of serum SARS-green to linear peptides of protein M of SARS-CoV Urbani [1]
0.5: Binding of serum 1b to linear peptides of protein M of SARS-CoV Urbani [1] | Binding of serum 37 to linear peptides of protein M of SARS-CoV Urbani [1] | Binding of serum 62 to linear peptides of protein M of SARS-CoV Urbani [1] | Binding of Control Serum Blood-Bank to Looped peptides of the protein M of SARS-CoV Urbani [2]
0.2: Binding of serum London to looped/cyclic peptides of protein M of SARS-CoV Urbani [1]
0.7: Binding of serum 2 to looped/cyclic peptides of protein M of SARS-CoV Urbani [1] | Binding of serum 37 to looped/cyclic peptides of protein M of SARS-CoV Urbani [1] | Rabbit serum looped peptides [3]
0.3: Binding of serum London to linear peptides of protein M of SARS-CoV Urbani [1] | Binding of serum SARS-green to looped/cyclic peptides of protein M of SARS-CoV Urbani [1] | Binding of serum SARS-yellow to linear peptides of protein M of SARS-CoV Urbani [1] | Rabbit serum linear peptides [3]
0.8: Binding of serum 1a to looped/cyclic peptides of protein M of SARS-CoV Urbani [1] | Binding of serum 6 to linear peptides of protein M of SARS-CoV Urbani [1] | Binding of Control serum Blood-bank to linear peptides of the protein M of SARS-CoV Urbani [2]
0.6: Binding of serum 1a to linear peptides of protein M of SARS-CoV Urbani [1] | Binding of serum 1b to looped/cyclic peptides of protein M of SARS-CoV Urbani [1] | Binding of serum 2 to linear peptides of protein M of SARS-CoV Urbani [1] | Binding of serum 6 to looped/cyclic peptides of protein M of SARS-CoV Urbani [1] | Binding of serum 62 to looped/cyclic peptides of protein M of SARS-CoV Urbani [1] | Binding of serum SARS-yellow to looped/cyclic peptides of protein M of SARS-CoV Urbani [1] | Binding of Control serum LUMC to linear peptides of the protein M of SARS-CoV Urbani [2] | Binding of Control serum LUMC to looped peptides of the protein M of SARS-CoV Urbani [2]

VFTSCELYHYQECVR
0.3: Binding of serum London to looped/cyclic peptides of protein X4 of SARS-CoV Urbani [1] | Binding of serum SARS-yellow to linear peptides of protein X4 of SARS-CoV Urbani [1]
0.6: Binding of serum 1b to linear peptides of protein X4 of SARS-CoV Urbani [1]
0.7: Binding of serum 1b to looped/cyclic peptides of protein X4 of SARS-CoV Urbani [1] | Binding of serum 2 to looped/cyclic peptides of protein X4 of SARS-CoV Urbani [1] | Binding of serum 6 to linear peptides of protein X4 of SARS-CoV Urbani [1] | Binding of serum 6 to looped/cyclic peptides of protein X4 of SARS-CoV Urbani [1] | Binding of serum 62 to looped/cyclic peptides of protein X4 of SARS-CoV Urbani [1] | Binding of serum London to linear peptides of protein X4 of SARS-CoV Urbani [1] | Binding of serum SARS-green to linear peptides of protein X4 of SARS-CoV Urbani [1] | Binding of serum SARS-green to looped/cyclic peptides of protein X4 of SARS-CoV Urbani [1] | Binding of Control Serum Blood-Bank to Looped peptides [2] | Binding of Control serum Blood-bank to linear peptides [2]
0.4: Binding of serum 2 to linear peptides of protein X4 of SARS-CoV Urbani [1]
0.5: Binding of serum SARS-yellow to looped/cyclic peptides of protein X4 of SARS-CoV Urbani [1] | Binding of Control serum LUMC to linear peptides [2] | Rabbit serum linear peptides [3] | Rabbit serum looped peptides [3]
0.8: Binding of serum 1a to linear peptides of protein X4 of SARS-CoV Urbani [1] | Binding of serum 1a to looped/cyclic peptides of protein X4 of SARS-CoV Urbani [1] | Binding of serum 37 to linear peptides of protein X4 of SARS-CoV Urbani [1] | Binding of serum 37 to looped/cyclic peptides of protein X4 of SARS-CoV Urbani [1] | Binding of serum 62 to linear peptides of protein X4 of SARS-CoV Urbani [1]
0.9: Binding of Control serum LUMC to looped peptides [2]
